Laboratory results: US8829011B2 (Janssen Pharmaceutica NV, priority 2008, dated 2014)

Experiments:
[1] = molecular target: T1, human recombinant 5-HT2A receptor (Homo sapiens, UniProt P28223); assay: Affinity for 5-HT2A receptor binding sites (competitive radioligand binding, [3H]ketanserin); conditions: membranes of NIH3T3 with h5-HT2A, * = tested as hydrochloride salt
T1 construct: expressed in transfected cells; host or cells: NIH3T3
Method: (§1) Stock drug solutions (10 mM) were prepared in DMSO (the final assay concentration of DMSO not exceeding 0.4%). Drug dilutions were prepared in assay buffer.
(§2) Sigmoidal inhibition curves were generated and fitted by nonlinear regression analysis (GraphPad Prism).
(§3) 2. Affinity for 5HT2 Receptor Binding Sites
(§4) Receptor binding was performed using the human recombinant 5-HT2A (GB: X57830), 5-HT2B (GB: Z36748) and 5-HT2C (GB: M81778) receptors. The affinity of the compounds for the 3 different human 5-HT2 receptor subtypes was evaluated by competitive radioligand binding assays using [^3H]ketanserin (h5-HT2A) or [^3H]mesulergine (h5-HT2B and h5-HT2C). The assays were performed on membranes prepared from NIH3T3 stably transfected with h5-HT2A or CHO stably transfected with h5-HT2B and h5-HT2C.

[2] = molecular target: T2, human recombinant 5-HT2B receptor (Homo sapiens, UniProt P41595); assay: Affinity for 5-HT2B receptor binding sites (competitive radioligand binding, [3H]mesulergine); conditions: membranes of CHO with h5-HT2B, * = tested as hydrochloride salt
T2 construct: expressed in transfected cells; host or cells: CHO
Method: as §1, §2, §3, §4

[3] = molecular target: T3, human recombinant 5-HT2C receptor (Homo sapiens, UniProt P28335); assay: Affinity for 5-HT2C receptor binding sites (competitive radioligand binding, [3H]mesulergine); conditions: membranes of CHO with h5-HT2C, * = tested as hydrochloride salt
T3 construct: expressed in transfected cells; host or cells: CHO
T3 sequence (P28335 33-458): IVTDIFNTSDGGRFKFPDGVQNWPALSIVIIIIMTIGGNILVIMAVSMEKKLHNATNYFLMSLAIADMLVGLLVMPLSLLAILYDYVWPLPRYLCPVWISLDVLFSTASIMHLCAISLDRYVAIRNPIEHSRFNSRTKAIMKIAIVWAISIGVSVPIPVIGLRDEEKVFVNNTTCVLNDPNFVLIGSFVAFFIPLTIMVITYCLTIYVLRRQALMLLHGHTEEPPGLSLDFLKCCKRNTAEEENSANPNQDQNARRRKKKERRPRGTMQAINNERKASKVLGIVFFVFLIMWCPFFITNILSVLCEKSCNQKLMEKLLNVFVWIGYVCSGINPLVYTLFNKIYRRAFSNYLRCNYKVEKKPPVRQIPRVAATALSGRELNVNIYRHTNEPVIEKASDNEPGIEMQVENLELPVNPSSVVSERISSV
Method: as §1, §2, §3, §4

[4] = molecular target: T4, human recombinant 5-HT6 receptor (Homo sapiens, UniProt P50406); assay: Affinity for 5-HT6 receptor binding sites (competitive radioligand binding, [3H]LSD); conditions: membranes of HEK-293 with h5-HT6, * = tested as hydrochloride salt
T4 construct: expressed in transfected cells; host or cells: HEK-293
Method: as §1, §2
3. Affinity for 5-HT6 Receptor Binding Sites
Receptor binding was performed using the human recombinant 5-HT6 (GB: BC0794995) receptor. The affinity of the compounds for the human 5-HT6 receptor was evaluated by competitive radioligand binding assays using [^3H]LSD. The assays were performed on membranes prepared from HEK-293 stably transfected with h5-HT6. Non-specific binding was estimated in the presence of 1 μM clozapine.

T4 sequence (P50406 whole entry): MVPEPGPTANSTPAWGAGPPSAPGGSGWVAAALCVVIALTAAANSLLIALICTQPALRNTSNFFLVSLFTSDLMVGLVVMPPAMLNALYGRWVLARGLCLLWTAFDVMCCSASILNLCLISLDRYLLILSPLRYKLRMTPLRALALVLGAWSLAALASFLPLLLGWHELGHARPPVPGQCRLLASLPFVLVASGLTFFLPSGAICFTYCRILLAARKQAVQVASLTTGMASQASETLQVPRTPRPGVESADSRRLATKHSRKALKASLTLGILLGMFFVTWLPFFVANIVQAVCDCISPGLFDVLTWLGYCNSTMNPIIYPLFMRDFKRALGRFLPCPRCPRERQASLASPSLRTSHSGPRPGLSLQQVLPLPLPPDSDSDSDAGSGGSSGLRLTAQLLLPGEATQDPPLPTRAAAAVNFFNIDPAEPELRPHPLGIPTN
T1 sequence (P28223 whole entry): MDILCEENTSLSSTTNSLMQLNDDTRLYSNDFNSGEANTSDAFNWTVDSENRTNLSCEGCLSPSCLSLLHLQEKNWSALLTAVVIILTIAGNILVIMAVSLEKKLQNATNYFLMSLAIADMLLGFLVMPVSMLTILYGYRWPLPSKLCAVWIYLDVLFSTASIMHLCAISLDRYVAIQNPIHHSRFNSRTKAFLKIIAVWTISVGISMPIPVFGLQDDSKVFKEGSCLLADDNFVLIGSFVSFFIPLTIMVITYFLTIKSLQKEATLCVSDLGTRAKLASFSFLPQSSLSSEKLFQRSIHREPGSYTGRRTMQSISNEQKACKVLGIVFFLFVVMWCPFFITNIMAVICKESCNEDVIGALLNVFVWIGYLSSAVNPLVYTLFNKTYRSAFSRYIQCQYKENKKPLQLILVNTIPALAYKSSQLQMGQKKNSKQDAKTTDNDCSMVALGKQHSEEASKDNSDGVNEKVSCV
T2 sequence (P41595 whole entry): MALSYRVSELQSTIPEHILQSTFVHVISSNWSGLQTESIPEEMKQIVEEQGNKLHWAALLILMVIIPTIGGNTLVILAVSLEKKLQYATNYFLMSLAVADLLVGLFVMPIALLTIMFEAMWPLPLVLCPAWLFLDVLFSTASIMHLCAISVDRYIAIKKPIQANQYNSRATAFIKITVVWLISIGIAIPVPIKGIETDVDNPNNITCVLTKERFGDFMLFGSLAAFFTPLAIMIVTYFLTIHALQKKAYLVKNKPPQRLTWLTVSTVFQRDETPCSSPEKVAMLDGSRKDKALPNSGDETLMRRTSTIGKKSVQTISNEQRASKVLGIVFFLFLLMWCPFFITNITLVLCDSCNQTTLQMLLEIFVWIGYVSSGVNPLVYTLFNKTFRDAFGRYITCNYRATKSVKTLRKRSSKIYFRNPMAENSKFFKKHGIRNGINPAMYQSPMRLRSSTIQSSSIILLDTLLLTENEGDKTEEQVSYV

| Ki [1] [nM] | Ki [2] [nM] | Ki [3] [nM] | Ki [4] [nM] | SMILES |
| --- | --- | --- | --- | --- |
| 61 | 8 | 46 | 47 | COc1ccc(-c2nc(N3CCCC3C)nc3c2CCNCC3)cc1Cl (stereo not drawn) [Example 66, 4-(3-chloro-4-methoxyphenyl)-6,7,8,9-tetrahydro-2-(2-methyl-1-pyrrolidinyl)-5H-pyrimido[4,5-d]azepine] |
| 19 | 6 | 5 | 29 | FC1CCN(c2nc3c(c(-c4ccc(Cl)cc4)n2)CCNCC3)CC1 [Example 68, 4-(4-chlorophenyl)-2-(4-fluoro-1-piperidinyl)-6,7,8,9-tetrahydro-5H-pyrimido[4,5-d]azepine] |
| 35 | 5 | 5 | 13 | Cc1ccc(-c2nc(N3CCC(F)CC3)nc3c2CCNCC3)cc1 [Example 69, 2-(4-fluoro-1-piperidinyl)-6,7,8,9-tetrahydro-4-(4-methylphenyl)-5H-pyrimido[4,5-d]azepine] |
| 54 | 2 | 12 | 19 | C[C@@H]1CCC[C@H](C)N1c1nc2c(c(-c3ccc(Cl)cc3)n1)CCNCC2 [Example 70, 4-(4-chlorophenyl)-2-[(2R,6S)-2,6-dimethyl-1-piperidinyl]-6,7,8,9-tetrahydro-5H-pyrimido[4,5-d]azepine] |
| 36 | 1 | 9 | 19 | Cc1ccc(-c2nc(N3[C@H](C)CCC[C@@H]3C)nc3c2CCNCC3)cc1 [Example 71, 2-[(2R,6S)-2,6-dimethyl-1-piperidinyl]-6,7,8,9-tetrahydro-4-(4-methylphenyl)-5H-pyrimido[4,5-d]azepine] |
| 28 | 2 | 4 | 32 | Cc1ccc(-c2nc(N3CCCC3C)nc3c2CCNCC3)cc1 (stereo not drawn) [Example 72, 6,7,8,9-tetrahydro-4-(4-methylphenyl)-2-(2-methyl-1-pyrrolidinyl)-5H-pyrimido[4,5-d]azepine] |
| 4 | 3 | 1 | 46 | Clc1ccc(-c2nc(N3CCCCC3)nc3c2CCNCC3)cc1 [Example 74, 4-(4-chlorophenyl)-6,7,8,9-tetrahydro-2-(1-piperidinyl)-5H-pyrimido[4,5-d]azepine] |
| 38 | 16 | 15 | 39 | Cc1ccc(-c2nc(N3CCC(F)CC3)nc3c2CCNCC3)cc1Cl [Example 76, 4-(3-chloro-4-methylphenyl)-2-(4-fluoro-1-piperidinyl)-6,7,8,9-tetrahydro-5H-pyrimido[4,5-d]azepine] |
| 77 | 9 | 33 | 51 | Cc1ccc(-c2nc(N3CCCC3C)nc3c2CCNCC3)cc1Cl (stereo not drawn) [Example 77, 4-(3-chloro-4-methylphenyl)-6,7,8,9-tetrahydro-2-(2-methyl-1-pyrrolidinyl)-5H-pyrimido[4,5-d]azepine] |
| 39 | 7 | 26 | 18 | Cc1ccc(-c2nc(N3[C@H](C)CCC[C@@H]3C)nc3c2CCNCC3)cc1Cl [Example 79, 4-(3-chloro-4-methylphenyl)-2-[(2R,6S)-2,6-dimethyl-1-piperidinyl]-6,7,8,9-tetrahydro-5H-pyrimido[4,5-d]azepine] |
| 48 | 3 | 17 | 35 | COc1ccc(-c2nc(N3[C@H](C)CCC[C@@H]3C)nc3c2CCNCC3)cc1 [Example 82, 2-[(2R,6S)-2,6-dimethyl-1-piperidinyl]-6,7,8,9-tetrahydro-4-(4-methoxyphenyl)-5H-pyrimido[4,5-d]azepine] |
| 45 | 2 | 15 | 31 | Cc1ccc(-c2nc(N3[C@H](C)CCC[C@@H]3C)nc3c2CCNCC3)cc1F [Example 85, 2-[(2R,6S)-2,6-dimethyl-1-piperidinyl]-4-(3-fluoro-4-methylphenyl)-6,7,8,9-tetrahydro-5H-pyrimido[4,5-d]azepine] |

| SMILES | Ki [1] [nM] | Ki [2] [nM] | Ki [3] [nM] | Ki [4] [nM] |
| --- | --- | --- | --- | --- |
| Cc1ccc(-c2nc(N3CCS(=O)(=O)CC3)nc3c2CCNCC3)cc1 [Example 64, 2-(1,1-Dioxo-1λ^6-thiomorpholin-4-yl)-4-p-tolyl-6,7,8,9-tetrahydro-5H-pyrimido[4,5-d]azepine] | 520 | 620 | 1260 | 29 |
| C[C@@H]1CCC[C@H](C)N1c1nc2c(c(-c3ccc(Cl)c(Cl)c3)n1)CCNCC2 [Example 73, 4-(3,4-dichlorophenyl)-2-[(2R,6S)-2,6-dimethyl-1-piperidinyl]-6,7,8,9-tetrahydro-5H-pyrimido[4,5-d]azepine] | 170 | 7 | 38 | 62 |
| COc1ccc(-c2nc(N3CCCC3C)nc3c2CCNCC3)cc1 (stereo not drawn) [Example 80, 6,7,8,9-tetrahydro-4-(4-methoxyphenyl)-2-(2-methyl-1-pyrrolidinyl)-5H-pyrimido[4,5-d]azepine] | 140 | 6 | 42 | 39 |
| C[C@@H]1CCC[C@H](C)N1c1nc2c(c(-c3ccc(F)c(F)c3)n1)CCNCC2 [Example 83, 4-(3,4-difluorophenyl)-2-[(2R,6S)-2,6-dimethyl-1-piperidinyl]-6,7,8,9-tetrahydro-5H-pyrimido[4,5-d]azepine] | 131 | 12 | 39 | 84 |
| C[C@@H]1CCC[C@H](C)N1c1nc2c(c(-c3ccc(Cl)c(F)c3)n1)CCNCC2 [Example 84, 4-(4-chloro-3-fluorophenyl)-2-[(2R,6S)-2,6-dimethyl-1-piperidinyl]-6,7,8,9-tetrahydro-5H-pyrimido[4,5-d]azepine] | 130 | 2 | 18 | 52 |
| Cc1ccc(-c2nc(N3[C@H](C)CCC[C@@H]3C)nc3c2CCNCC3)cn1 [Example 86, 2-[(2R,6S)-2,6-dimethyl-1-piperidinyl]-6,7,8,9-tetrahydro-4-(6-methyl-3-pyridinyl)-5H-pyrimido[4,5-d]azepine] | 660 | 9 | 240 | 80 |
| C[C@@H]1CCC[C@H](C)N1c1nc2c(c(-c3cnc4ccccc4c3)n1)CCNCC2 [Example 88, 2-[(2R,6S)-2,6-dimethyl-1-piperidinyl]-6,7,8,9-tetrahydro-4-(3-quinolinyl)-5H-pyrimido[4,5-d]azepine] | 230 | 64 | 600 | 12 |
| COc1ccc(-c2nc(N3[C@H](C)CCC[C@@H]3C)nc3c2CCNCC3)cc1F [Example 89, 2-[(2R,6S)-2,6-dimethyl-1-piperidinyl]-4-(3-fluoro-4-methoxyphenyl)-6,7,8,9-tetrahydro-5H-pyrimido[4,5-d]azepine] | 180 | 3 | 33 | 35 |
| CC(C)c1ccc(-c2nc(N3[C@H](C)CCC[C@@H]3C)nc3c2CCNCC3)cc1 [Example 91, 2-[(2R,6S)-2,6-dimethyl-1-piperidinyl]-6,7,8,9-tetrahydro-4-[4-(1-methylethyl)phenyl]-5H-pyrimido[4,5-d]azepine] | 160 | 6 | 45 | 41 |
